melting point [°C]	SMILES
179 to 180	COc1ccc(S(=O)(=O)N2CCc3cccc(-c4ccc(O)cc4)c32)cc1
127 to 128	COc1cc(-c2ccccc2)c(C)cc1CC(=O)O
185 to 187	CCc1cccc(NC(=O)c2nnn[nH]2)c1O
74 to 75	COC(=O)c1ccc(CBr)c(CBr)c1
107 to 112	COc1cc(C(C)(C)O)cc(Br)c1O
161 to 163	CC(O)(C(=O)O)c1ccc(-c2ccccc2)c(F)c1 (stereo not given)
93	CC1(C)C=C(C(O)CN)c2ccccc21 (stereo not given)
115	O=[N+]([O-])c1ccc(OCCN2CCN(c3nsc4ccccc34)CC2)cc1
59 to 60	CCOC(=O)[C@H](C[C@H](Cc1ccc(OC)c(OCCCOC)c1)C(C)C)NC(=O)OC(C)(C)C
93 to 95	COc1cc2ccc(C(=O)CCCCBr)cc2cc1OC
126	C=CC(CC(O)C(CC1CCCCC1)NC(=O)C(Cc1c[nH]cn1)NC(=O)C(Cc1ccccc1)N(C)C(=O)CC(C)(C)C)C(C)C (stereo not given)
165 to 166	CC(C)(C)OC(=O)N1CCN(c2cccc3c(Sc4ccccc4)c[nH]c23)CC1
102 to 104	O=C(NCCN1CCCCC1)Nc1ccc(-c2cnc(COCc3cc4ccccc4o3)o2)cc1
106 to 109	O=C(O)/C=C/c1ccc(OCC2CCCO2)cc1Oc1ncc(C(F)(F)F)cc1Cl (stereo not given)
218 to 220	Cc1cc(N2CC=C(C(=O)O)CC2)c2cccc(-c3ccc(Cl)cc3Cl)c2n1
169	COc1cc2c(CC(=O)O)c(C)n(C(=O)c3ccc(Cl)s3)c2cc1F
312 to 318	CN(C)c1ccc(/C=C\c2ccc3c(=O)[nH]ncc3c2)cc1
185 to 187	O=C(NCc1ccc(Cl)cc1Cl)N1CCc2[nH]cnc2C1CCC1CCCCC1 (stereo not given)
185 to 186	CCOC(=O)c1cc(NCc2ccccc2)c(N2CCOCC2)c(S(N)(=O)=O)c1
211 to 212	S=c1[nH]c2ccc(-c3cccc(Cl)c3)cc2n1Cc1ccccc1
138 to 140	Cc1c(-c2ccccc2)[nH]c2ccc(Br)cc12
67 to 68	CSCc1ccc(-c2cccnc2)o1

melting point [°C]	SMILES
52 to 55	Cc1cn(C2(C(=O)N(C)C)CC2)nc1-c1ccccc1
133 to 134	CCCCC[C@H](CC(=O)NCc1c(C(C)C)cccc1C(C)C)c1cccc2c1OCO2
178 to 179	CC(=O)c1cc(Cl)sc1S(N)(=O)=O
91 to 92	COC(=O)C(CCO)NS(=O)(=O)c1ccc(Cl)cc1 (racemic)
105 to 110	COc1ccc(CCNC(=O)C(=O)NCCCCCCN)cc1OC1CCCC1
126 to 128	CC(C)CN(C)c1cc(F)cc(C(=O)Nc2ccc(OCCN3CCOCC3)c3ccccc23)c1
117 to 119	COc1cc(C2CCC(c3cc(OC)c(OC)c(OC)c3)C2N)cc(OC)c1OC (stereo not given)
303 to 305	Cc1cc2c(-c3ccccc3)c(CNC(=O)c3cc4ccccc4[nH]3)n(C)c(=O)c2cc1C
146 to 147	CS(=O)(=O)c1c(Cl)nc(Cl)nc1Cl
74 to 76	CCCN(CCC)CCCCNC(=O)c1cnc2cc(I)ccc2n1
70 to 72	COc1ccc(Cc2sc3ccccc3c2-c2ccc(-c3ccc(OC(Cc4ccccc4)C(=O)O)cc3)cc2)c(OC)c1 (stereo not given)
53 to 55	C=CCOc1cccc(-n2cnc(C(=O)OCC)c2)c1
118 to 119	CC1(OC(=O)c2ccco2)C=CC(COC(=O)c2ccco2)=CN1 (stereo not given)
168 to 170	Cc1[nH]c2ccccc2c1CN1CCC(c2c(Cl)cccc2Cl)CC1
158 to 159	Cc1cc(NC(=O)Cc2ccccc2)cc(C)c1S(=O)(=O)C[N+](=O)[O-]
178 to 180	CN[C@@]1(C)CCN(c2c(-c3cccc(F)c3)c(C)c(C#N)c3nc(C(=O)N(C)C)oc23)C1
20	CCCCC(CC)COC(=O)CSCc1cc(C(C)(C)C)c(O)c(C(C)(C)C)c1 (stereo not given)
188	CCOC(=O)c1nc(NC(C)=O)sc1Cc1cccc(SC)c1
114 to 119	Cn1c(=O)c2c(ncn2CCCN2CCC(C(=O)c3ccc(F)cc3)CC2)n(C)c1=O
153 to 156	COC(=O)C(Cc1ccccc1)N1CC(N2C(=O)c3ccccc3C2=O)C1=O (stereo not given)
140 to 141	CC(C)c1nn(-c2ccc(C#N)nn2)cc1CCCO
113 to 119	COc1nnc(Cl)c(-c2c(F)cc(F)cc2F)c1-c1ccc(Br)cc1

melting point [°C]	SMILES
214 to 215	CCc1nc2c(N)nc3cc(OCc4ccccc4)ccc3c2n1CCCCNS(C)(=O)=O
178 to 180	CC(C)CC(CO)NC(=O)C(Cc1cn(NC(=O)OCc2ccccc2)cn1)NC(=O)CCCc1ccccc1 (single isomer, unassigned; (-))
125 to 127	O=C(NCc1ccccc1C(F)(F)F)c1ccc2cnccc2n1
90 to 92	N#Cc1c(F)ccc(F)c1N
117 to 118	Oc1cnccc1N=CN1CCCCCC1
58 to 59	COC(=O)CCc1cnoc1-c1ccc(Br)cc1
165 to 166	C(#Cc1ccc2[nH]ccc2c1)CCN1CCC(Cc2ccccc2)CC1
109 to 116	CC(C)C[C@H](NC(=O)OCC1CCCCC1)C(=O)N[C@@H](CC(C)C)C(=O)N[C@@H](C(C)C)[C@@H](O)c1c(-c2ccccc2)c1=O
217 to 218	CNc1nc2c(s1)C(=O)CC(C)(C)C2
240 to 242	Cc1cc(C)c(-c2c(O)sc(-c3ccccc3)nc2=O)c(C)c1
124	COc1cc(C(=O)c2ccc(CC(=O)O)s2)cc(OC)c1OC
223 to 224	Cn1cc(-c2cc3cccnc3[nH]2)c2cc(NS(C)(=O)=O)ccc21
133	C[C@@H](S[C@H]1CO[C@H](c2ccc(C(=O)Nc3ccncc3)cc2)OC1)[C@](O)(Cn1cncn1)c1ccc(F)cc1F
192 to 194	CSC(=NCCSCc1ncccc1O)NC#N
86 to 91	COC(=O)C(C(=O)c1cn2c3c(cccc13)CCC2)c1cn(C(=O)OC(C)(C)C)c2ccccc12 (stereo not given)
141 to 143	Brc1ccn(-c2ccc(-c3ccccc3)cc2)c1
79 to 80	C=CCc1cc2c(cc1O)CC(CCc1ccccc1)O2 (stereo not given)
237 to 239	CCOC(=O)c1[nH]c2cc(C(F)(F)F)ccc2c1NCC(=O)c1ccccc1
157 to 158	Cc1oc(-c2ccccc2)nc1COc1cc(F)cc(CN(O)C(N)=O)c1
101 to 103	CCCCN(CCCC)C(=O)CC(C)Nc1c(C#N)cnn1-c1ccc(Cl)c(Cl)c1Cl (stereo not given)
101 to 104	CCCC=Cc1c(C(C)C)nc(C(C)C)c(CO)c1-c1cccc(Cl)c1
> 300	O=C(O)CCc1ccc(-c2nc3c(=O)n(CC4CCCCC4)c(=O)n(CC4CCCCC4)c3[nH]2)cc1

SMILES	melting point [°C]
CN1C(=O)[C@H](NC(=O)/C=C/c2ccc(I)cc2)N=C(c2ccccc2)c2ccccc21	137 to 140
C=CCN1CCc2cc(OC)c(OC)c3c2C1Cc1cc(OC)c(OC)cc1-3 (single isomer, unassigned; (+))	139 to 143
NC1(CO)CCCNC1=O (stereo not given)	145
CCCc1c(C(=O)C(C)C)c2ccc(C(=O)OC)cc2n1Cc1ccc(Br)cc1F	110 to 112
